{
  "source": "paper PMC6946680",
  "about": "“Modulation of brain cation-Cl^− cotransport via the SPAK kinase inhibitor ZT-1a” (Nature Communications, 2020)",
  "key": {"[1]": {"target": "T1, GST–[T233E]SPAK kinase (Homo sapiens, UniProt Q9UEW8, T231E)", "T1 construct": "made in house; host or cells: E. coli", "experiment": "SPAK kinase assay with CATCHtide and IC50 determination", "assay_type": "biochemical", "conditions": "for ZT-1a vs SPAK+MO25, kinase activity / ZT-1a vs SPAK, kinase activity: Fig S7b; for ZT-1a vs SPAK, kinase activity: SPAK alone", "text": "II. Experimental procedures\n1. Reagents and General methods\nTissue culture reagents were from Life Technologies. P81 phosphocellulose paper was from Whatman […]\nand [γ-32P]-ATP was from Perkin Elmer. […] Protein G […]\nsepharose was from Amersham. DNA constructs used for transfection were purified from Escherichia coli DH5α using Qiagen or Invitrogen plasmid Maxi kits according to the manufacturer's protocol. All DNA constructs were verified by DNA sequencing.\n2. Plasmids, protein expression and purification\nDNA clones were from the Division of Signal Transduction Therapy (University of Dundee). The SPAK proteins were expressed in E. Coli and purified as described previously 1.\n3. SPAK kinase assays and IC50 determination\nSPAK kinase assays employed CATCHtide (cation chloride co-transporter peptide substrate). Peptide kinase assays, performed in triplicate, were set up in a total volume of 50 μl containing 0.5 μg GST– […]\ncpm/pmol) and the indicated concentrations of inhibitor dissolved in DMSO. After incubation for 30 min at 30°C, reactions were terminated by spotting 40 μl of the reaction mix onto P81 phosphocellulose paper and immersion in 50 mM phosphoric acid. The papers were washed extensively and incorporation of [γ-32P]ATP into CATCHtide was quantified by Cerenkov counting.\nIC50 values were calculated with GraphPad Prism using non-linear regression analysis.\n4. Fluorescence polarization […]\nconcentrations between 0.00001 to 1 mM. Data points are the means of three determinations, with error […]\nA Supplemental Fig. 7 Effects of increasing concentrations of ZT-1a on SPAK activity in the absence […]\nthe absence or presence of five-fold molar excess of wild-type MO25α. b Kinetic data determined for B ZT-1a in the absence or presence of five-fold molar excess of wild-type MO25α. Data are means of […]\npresence of wild-type MO25α."}, "[2]": {"system": "pSPAK (pSer373)/pOSR1 (pSer325)", "experiment": "Immunoblot of pSPAK/pOSR1 in ischemic mouse brain membrane fractions", "conditions": "for SPAK / Na-K pumb / pSer373 / SPAK: Fig 8, individual samples; for pSPAK pOSR1/Na K pump (fold veh-CL): Membrane, single samples"}},
  "note": "“And” between values parts separate entries of the source, which are not always exact repeats. Equal values may be shown once. “Also recorded” adds a separate entry of the source.",
  "data": [
    {"smiles": "Cc1cc(C(C#N)c2ccc(Cl)cc2)c(Cl)cc1NC(=O)c1cc(Cl)ccc1O", "note": "(stereo not shown) [ZT-1a, 5-chloro-N-(5-chloro-4-((4-chlorophenyl)(cyano)methyl)-2-methylphenyl)-2-hydroxybenzamide]", "values": [
      {"measurement": "SPAK kinase activity signal (Fig S3 source data)", "setting": "[1]; ATP 0.1 mM, inhibitor 1000 uM", "result": "187 and 106 and 158"},
      {"measurement": "SPAK kinase activity signal (Fig S3 source data)", "setting": "[1]; ATP 1 mM, inhibitor 1e-5 uM", "result": "880 and 891 and 864"},
      {"measurement": "SPAK kinase activity signal (Fig S3 source data)", "setting": "[1]; ATP 1 mM, inhibitor 0.0001 uM", "result": "892 and 902 and 916"},
      {"measurement": "SPAK kinase activity signal (Fig S3 source data)", "setting": "[1]; ATP 1 mM, inhibitor 0.001 uM", "result": "869 and 902 and 885"},
      {"measurement": "SPAK kinase activity signal (Fig S3 source data)", "setting": "[1]; ATP 1 mM, inhibitor 0.03 uM", "result": "812 and 786 and 753"},
      {"measurement": "SPAK kinase activity signal (Fig S3 source data)", "setting": "[1]; ATP 1 mM, inhibitor 0.1 uM", "result": "862 and 807 and 759"},
      {"measurement": "SPAK kinase activity signal (Fig S3 source data)", "setting": "[1]; ATP 1 mM, inhibitor 0.3 uM", "result": "768 and 789 and 736"},
      {"measurement": "SPAK kinase activity signal (Fig S3 source data)", "setting": "[1]; ATP 1 mM, inhibitor 1 uM", "result": "662 and 719 and 681"},
      {"measurement": "SPAK kinase activity signal (Fig S3 source data)", "setting": "[1]; ATP 1 mM, inhibitor 3 uM", "result": "641 and 604 and 563"},
      {"measurement": "SPAK kinase activity signal (Fig S3 source data)", "setting": "[1]; ATP 1 mM, inhibitor 10 uM", "result": "554 and 604 and 587"},
      {"measurement": "SPAK kinase activity signal (Fig S3 source data)", "setting": "[1]; ATP 1 mM, inhibitor 100 uM", "result": "453 and 345 and 405"},
      {"measurement": "SPAK kinase activity signal (Fig S3 source data)", "setting": "[1]; ATP 1 mM, inhibitor 1000 uM", "result": "222 and 164 and 186"},
      {"measurement": "change of SPAK IC50 values with increasing ATP concentration", "setting": "[1]; ATP between 0.01 and 1 mM", "result": "unchanged; also recorded: unaffected by changing [ATP]"},
      {"measurement": "ZT-1a vs SPAK+MO25, kinase activity", "setting": "[1]; ZT-1a 1e-5 uM", "result": "401897 C.P.M and 396529 C.P.M and 387112 C.P.M"},
      {"measurement": "ZT-1a vs SPAK+MO25, kinase activity", "setting": "[1]; ZT-1a 0.0001 uM", "result": "393641 C.P.M and 402385 C.P.M and 384718 C.P.M"},
      {"measurement": "ZT-1a vs SPAK+MO25, kinase activity", "setting": "[1]; ZT-1a 0.001 uM", "result": "392612 C.P.M and 367664 C.P.M and 337143 C.P.M"},
      {"measurement": "ZT-1a vs SPAK+MO25, kinase activity", "setting": "[1]; ZT-1a 0.003 uM", "result": "363431 C.P.M and 388438 C.P.M and 371694 C.P.M"},
      {"measurement": "ZT-1a vs SPAK+MO25, kinase activity", "setting": "[1]; ZT-1a 0.01 uM", "result": "359080 C.P.M and 382836 C.P.M and 362174 C.P.M"},
      {"measurement": "ZT-1a vs SPAK+MO25, kinase activity", "setting": "[1]; ZT-1a 0.03 uM", "result": "408327 C.P.M and 384102 C.P.M and 373519 C.P.M"},
      {"measurement": "ZT-1a vs SPAK+MO25, kinase activity", "setting": "[1]; ZT-1a 0.1 uM", "result": "381538 C.P.M and 398205 C.P.M and 371203 C.P.M"},
      {"measurement": "ZT-1a vs SPAK+MO25, kinase activity", "setting": "[1]; ZT-1a 0.3 uM", "result": "371591 C.P.M and 394205 C.P.M and 361553 C.P.M"},
      {"measurement": "ZT-1a vs SPAK+MO25, kinase activity", "setting": "[1]; ZT-1a 1 uM", "result": "365869 C.P.M and 359432 C.P.M and 371032 C.P.M"},
      {"measurement": "ZT-1a vs SPAK+MO25, kinase activity", "setting": "[1]; ZT-1a 3 uM", "result": "354403 C.P.M and 355755 C.P.M and 331937 C.P.M"},
      {"measurement": "ZT-1a vs SPAK+MO25, kinase activity", "setting": "[1]; ZT-1a 10 uM", "result": "325521 C.P.M and 299490 C.P.M and 282196 C.P.M"},
      {"measurement": "ZT-1a vs SPAK+MO25, kinase activity", "setting": "[1]; ZT-1a 100 uM", "result": "119789 C.P.M and 97606 C.P.M and 83035 C.P.M"},
      {"measurement": "ZT-1a vs SPAK+MO25, kinase activity", "setting": "[1]; ZT-1a 1000 uM", "result": "31455 C.P.M and 51772 C.P.M and 49172 C.P.M"},
      {"measurement": "ZT-1a vs SPAK, kinase activity", "setting": "[1]; ZT-1a 1e-5 uM", "result": "48785 C.P.M and 47183 C.P.M and 49610 C.P.M"},
      {"measurement": "ZT-1a vs SPAK, kinase activity", "setting": "[1]; ZT-1a 0.0001 uM", "result": "46475 C.P.M and 45108 C.P.M and 47685 C.P.M"},
      {"measurement": "ZT-1a vs SPAK, kinase activity", "setting": "[1]; ZT-1a 0.001 uM", "result": "47080 C.P.M and 46113 C.P.M and 46420 C.P.M"},
      {"measurement": "ZT-1a vs SPAK, kinase activity", "setting": "[1]; ZT-1a 0.003 uM", "result": "44660 C.P.M and 45821 C.P.M and 45595 C.P.M"},
      {"measurement": "ZT-1a vs SPAK, kinase activity", "setting": "[1]; ZT-1a 0.01 uM", "result": "45890 C.P.M and 44094 C.P.M and 44440 C.P.M"},
      {"measurement": "ZT-1a vs SPAK, kinase activity", "setting": "[1]; ZT-1a 0.03 uM", "result": "44825 C.P.M and 43187 C.P.M and 44890 C.P.M"},
      {"measurement": "ZT-1a vs SPAK, kinase activity", "setting": "[1]; ZT-1a 0.1 uM", "result": "44275 C.P.M and 42127 C.P.M and 44780 C.P.M"},
      {"measurement": "ZT-1a vs SPAK, kinase activity", "setting": "[1]; ZT-1a 0.3 uM", "result": "44230 C.P.M and 41993 C.P.M and 43780 C.P.M"},
      {"measurement": "ZT-1a vs SPAK, kinase activity", "setting": "[1]; ZT-1a 1 uM", "result": "43840 C.P.M and 42097 C.P.M and 44510 C.P.M"},
      {"measurement": "ZT-1a vs SPAK, kinase activity", "setting": "[1]; ZT-1a 3 uM", "result": "41230 C.P.M and 39714 C.P.M and 40580 C.P.M"},
      {"measurement": "ZT-1a vs SPAK, kinase activity", "setting": "[1]; ZT-1a 10 uM", "result": "29580 C.P.M and 31008 C.P.M and 33855 C.P.M"},
      {"measurement": "ZT-1a vs SPAK, kinase activity", "setting": "[1]; ZT-1a 100 uM", "result": "14995 C.P.M and 17307 C.P.M and 16430 C.P.M"},
      {"measurement": "ZT-1a vs SPAK, kinase activity", "setting": "[1]; ZT-1a 1000 uM", "result": "5830 C.P.M and 7520 C.P.M and 9285 C.P.M"},
      {"measurement": "IC50", "setting": "[1]; absence of wild-type MO25α", "result": 40.5, "unit": "µM"},
      {"measurement": "IC50", "setting": "[1]; presence of five-fold molar excess of wild-type MO25α", "result": 41.3, "unit": "µM"},
      {"measurement": "SPAK / Na-K pumb", "setting": "[2]; CL hemisphere", "result": "0.981 and 0.854 and 0.987 and 1.037 and 0.972 and 0.893"},
      {"measurement": "pSer373 / SPAK", "setting": "[2]; CL hemisphere", "result": "1.177 and 1.25 and 1.197 and 1.217 and 1.153 and 1.09"},
      {"measurement": "SPAK / Na-K pumb", "setting": "[2]; IL hemisphere", "result": "0.919 and 0.978 and 0.855 and 0.931 and 0.95 and 0.819"},
      {"measurement": "pSer373 / SPAK", "setting": "[2]; IL hemisphere", "result": "0.773 and 0.739 and 0.598 and 0.674 and 0.62 and 0.668"},
      {"measurement": "pSPAK pOSR1/Na K pump (fold veh-CL)", "setting": "[2]; CL", "result": "1.23 fold veh-CL and 0.84 fold veh-CL and 1.17 fold veh-CL and 1.58 fold veh-CL and 1.64 fold veh-CL"},
      {"measurement": "pSPAK pOSR1/Na K pump (fold veh-CL)", "setting": "[2]; IL", "result": "1.24 fold veh-CL and 0.94 fold veh-CL and 0.88 fold veh-CL and 1.08 fold veh-CL and 0.87 fold veh-CL"},
      {"measurement": "reduction of ischemia-induced elevation of pSPAK", "setting": "[2]; compared with vehicle-control mice", "result": "55–65%"},
      {"measurement": "ischemia-induced increase of pSPAK/pOSR1", "setting": "[2]; post-stroke ZT-1a 5 mg/kg, 24 h reperfusion", "result": "prevented"}
    ]}
  ]
}
